Source: patent publication US10772929B2, “Use of peptide compounds in treating acute pancreatitis” (SHENZHEN HIGHTIDE BIOPHARMACEUTICAL, LTD., priority 2017, dated 2020)

Assays:
[1] = tested on: sodium taurocholate-induced severe acute pancreatitis (SAP) rat model; assay: Sodium taurocholate-induced severe acute pancreatitis (SAP) rat model; type: in vivo; conditions: SAP rats; for Survival Rate: 3-day experiment; for Survival rate of model animals versus model control (in words): all three doses (0.05, 0.25, 1.25 mg/kg); for Pathological score: Area of necrosis / Pathological score: Edema / Pathological score: Hemorrhage / Pathological score: Inflammation: Schmidt's scoring standard 0-4; for Pathological score: Total damage: sum of the four items
Text: After at least 7 days of accumulation period, 60 female and 70 male Sprague-Dawley (SD) rats were included in the study. Five females and eight males were randomly selected as the control group. Another five females and eight males were randomly selected as the sham group, the abdominal cavity was opened for each of the rats in the sham group, and a cotton swab was used to gently flip the duodenum and pancreas, then the abdominal muscle and skin were sutured after the completion of the operation The remaining animals were assigned to establish the severe acute pancreatitis (SAP) rat model using the method of retrograde injection of sodium taurocholate solution with 35 mg/kg dosage into the biliopancreatic duct. The model animals were randomly divided into 4 groups of 24 rats each (male:female=1:1) on the day after model establishment, which were the model control group (vehicle), and low dose group of peptide 12 (0.05 mg/kg), middle dose group of peptide 12 (0.25 mg/kg) and high dose group of peptide 12 (1.25 mg/kg), peptide 12 was dissolved in saline.
The animals were subcutaneously injected once on the day after the establishment of the model, once on the second day, for a total of 2 consecutive days, and the experimental period was 3 days. During the experiment, the animals were observed by cage, including if there is any animal death or near death, mental state, behavioral activities, fecal characteristics, skin, hair, eyes, ears, nose, abdomen, external genitals, anus, limbs, feet, respiration, etc. At the end of the experiment, all the surviving rats were weighed and blood samples were collected to detect the levels of amylase, calcium and lipase in serum of rats in each group. The general anatomical observation was made, focusing on the status of pancreas, gastrointestinal tract, ascites, bile duct obstruction, pulmonary congestion and saponification spots. The pancreas was preserved in 10% formalin fixative for further pathological analysis.
The severity of pancreatic injury was assessed by preparing HE slices of pancreas and using Schmidt's scoring standard to evaluate the pathological changes of pancreatic edema, inflammation, hemorrhage and necrosis. The total pancreatic injury calculated as the sum of the above four items.

[2] = tested on: caerulein-induced acute pancreatitis (AP) model; assay: Caerulein-induced acute pancreatitis (AP) mouse model; type: in vivo, BALB/c mice; conditions: caerulein AP mice; for Pathological score: Area of necrosis / Pathological score: Edema / Pathological score: Hemorrhage / Pathological score: Inflammation: Schmidt's scoring standard; for Edema of the pancreas versus model group (in words): FIG. 12; for Inflammation of the pancreas versus model group (in words): FIG. 13; for Level of amylase versus model control / Level of lipase versus model control: doses of 0.025, 0.25, 2.5 and 25 mg/kg; for Level of amylase versus model control: FIG. 10, P<0.001; for Level of lipase versus model control: FIG. 11, P<0.001
Procedure: Male BALB/c mice, aged 6-8 weeks, were accumulated for more than 7 days. After fasting overnight, 10 animals were randomly selected as normal control. The remaining animals were injected with caerulein 50 μg/kg intraperitoneally every 1 hour for 10 times to induce acute pancreatitis, and they were randomly divided into model control group and peptide 12 treatment groups with the dosage of 0.025, 0.25, 2.5 and 25 mg/kg respectively, there were 10 mice in each group. Mice were given corresponding doses of peptide 12 or normal saline 5 minutes before the fourth injection of caerulein.
The experiment was finished one hour after the 10th injection of caerulein, blood samples were collected for the determination of amylase and lipase levels. Pancreas were weighed and fixed in 10% formalin solution for subsequent pathological analysis.
The pancreatic index was calculated as pancreatic weight/body weight, which reflected the severity of pancreatic edema. The statistical results were shown in FIG. 9, in which ### means P<0.001 compared with the normal control group; ** means P<0.01 compared with the model control group, *** means P<0.001 compared with the model control group. […] It should be noted that in FIG. 10, ### means P<0.001 compared with the normal control group; *** means P<0.001 compared with the model control group; in FIG. 11, ### means P<0.001 compared with the normal control group; *** means P<0.001 compared with the model control group.
The severity of pancreatic injury was assessed by preparing HE slices of pancreas and using Schmidt's scoring standard to evaluate the pathological changes of pancreatic edema, inflammation, hemorrhage and necrosis.

[3] = listed as Ac-IGLHD PSHGT LPAGS-OH

## Ac-IGLHDPSHGTLPAGS-OH [Peptide 12]
[1]; 0.05 mg/kg
  Ratio (treatment group/model group) of survival: 1.11
[1]; 0.05 mg/kg subcutaneous once daily for 2 days
  Survival Rate: 41.7%
[1]; 0.25 mg/kg
  Ratio (treatment group/model group) of survival: 1.33
[1]; 0.25 mg/kg subcutaneous once daily for 2 days
  Survival Rate: 50.0%
[1]; 1.25 mg/kg
  Ratio (treatment group/model group) of survival: 1.78
[1]; 1.25 mg/kg subcutaneous once daily for 2 days, 1.25 mg/kg
  Survival Rate: 66.7%
[1]; FIG. 4 to FIG. 8, dose-dependent
  Pathological changes of pancreas caused by sodium taurocholate: reduce
[1]; [3]
  Survival rate of model animals versus model control (in words): significantly increase
[1]; listed as peptide 12
  Survival rate of model animals versus model control (in words): improved
[1]; high dose (1.25 mg/kg)
  Pathological score: Area of necrosis: 1.13 ± 0.85
  Pathological score: Edema: 1.21 ± 0.96
  Pathological score: Hemorrhage: 1.15 ± 0.83
  Pathological score: Inflammation: 2.67 ± 1.00
  Pathological score: Total damage: 6.15 ± 2.69
[1]; low dose (0.05 mg/kg)
  Pathological score: Area of necrosis: 1.63 ± 0.74
  Pathological score: Edema: 1.33 ± 0.86
  Pathological score: Hemorrhage: 1.73 ± 0.89
  Pathological score: Inflammation: 2.90 ± 1.22
  Pathological score: Total damage: 7.60 ± 3.07
[1]; middle dose (0.25 mg/kg)
  Pathological score: Area of necrosis: 1.11 ± 0.78
  Pathological score: Edema: 1.44 ± 0.87
  Pathological score: Hemorrhage: 1.31 ± 0.87
  Pathological score: Inflammation: 2.83 ± 0.93
  Pathological score: Total damage: 6.69 ± 2.53
[1]; treatment groups 0.05, 0.25, 1.25 mg/kg
  Mental state and activity state of the surviving animals versus model control: significantly better
[1]; treatment groups versus control group
  General anatomy of surviving animals (pancreas edema and liquefaction, gastrointestinal obstruction, ascites volume, bile duct obstruction, pulmonary congestion, saponification spots): improved with varying degrees
[1]; treatment groups, FIG. 2
  Level of amylase in blood versus model control: decreased
[1]; treatment groups, FIG. 3
  Level of lipase in blood versus model control: decreased
[2]; 0.025 mg/kg
  Pathological score: Area of necrosis: 0.00 ± 0.00
  Pathological score: Edema: 1.50 ± 0.84
  Pathological score: Hemorrhage: 0.00 ± 0.00
  Pathological score: Inflammation: 1.33 ± 0.52
[2]; 0.25 mg/kg
  Pathological score: Area of necrosis: 0.00 ± 0.00
  Pathological score: Edema: 1.67 ± 0.82
  Pathological score: Hemorrhage: 0.00 ± 0.00
  Pathological score: Inflammation: 1.17 ± 0.75
[2]; 2.5 mg/kg
  Pathological score: Area of necrosis: 0.00 ± 0.00
  Pathological score: Edema: 1.17 ± 1.17
  Pathological score: Hemorrhage: 0.00 ± 0.00
  Pathological score: Inflammation: 0.83 ± 0.75
[2]; 25 mg/kg
  Pathological score: Area of necrosis: 0.00 ± 0.00
  Pathological score: Edema: 1.50 ± 0.55
  Pathological score: Hemorrhage: 0.33 ± 0.82
  Pathological score: Inflammation: 2.17 ± 0.75
[2]; [3]
  Edema of the pancreas versus model group (in words): significantly reduced
  Inflammation of the pancreas versus model group (in words): significantly reduced
  Level of amylase versus model control: significantly reduced
  Level of lipase versus model control: significantly reduced
[2]; listed as peptide 12
  Edema of the pancreas versus model group (in words): alleviated
  Inflammation of the pancreas versus model group (in words): alleviated
[2]
  Level of amylase versus model control: significantly lowered
  Level of lipase versus model control: significantly lowered
[2]; doses of 0.025, 0.25 and 2.5 mg/kg, dose dependent, FIG. 9
  Pancreatic index (pancreatic weight/body weight) versus model control: significantly decreased
